Like-named read-outs stand apart in the source and are kept apart here.
What was measured:
[1] = tested on: FeCl3 rat thrombosis model; settings: compared with Ticagrelor; cited from earlier work
[2] = oral administration of Compound 1 or its prodrug, clinical phase I study; cited from earlier work
[3] = tested on: Adenosine diphosphate (ADP)-induced platelet aggregation; assay: Inhibition of platelet aggregation (IPA), LTA assay, after single subcutaneous doses, clinical phase I study; assay type: in vivo, human (healthy male subjects); settings: for % IPA (inhibition of platelet aggregation) calculated using maximum platelet aggregation values, mean ± SD: N = 6, 20 μM ADP
Method: (§1) The time- and dose-dependency of plasma concentration and inhibition of platelet aggregation (IPA) after subcutaneous administration of Compound 1 was investigated in a clinical phase I study in healthy male subjects.
(§2) In a randomized, double-blind, placebo-controlled study, 48 subjects in fasted condition were exposed to single, subcutaneous doses ranging from 1 to 32 mg (1 mg, 2 mg, 4 mg, 8 mg, 16 mg and 32 mg) of Compound 1 (n=6 on Compound 1 and n=2 on placebo per dose level).
(§3) Compound 1 for s.c. administration was available as sealed glass vials at the strength of 20 mg. The vials contained lyophilized Compound 1 to be reconstituted with 1 mL of water for injection to prepare stock solutions of 20 mg/mL (see above: Formulation of Compound 1 (higher dose of 20 mg/mL)). These stock solutions were further diluted with 0.9% sodium chloride to prepare 2, 4, 8, 16, and 20 mg/mL solutions. The volume injected was 0.5 mL for dose levels 1, 2, 4, and 8 mg. For dose levels 16 and 32 mg, 1 or 2 injection(s) of 0.8 mL from the 20 mg/mL solution was (were) performed.
(§4) The solution for injection was prepared for administration in a syringe suitable for s.c. injection. The solution was administered as injection(s) in the thigh.
PD blood samples were collected by direct venipuncture or via an i.v. catheter placed in an antecubital vein in the arm, using 18-21 gauge needles. The first 2 mL of blood were discarded, and, thereafter, blood was drawn gently into two open 3.5 mL collection tubes. Collection tubes for LTA (light transmission aggregometry) assays contained phenylalanine-proline-arginine-cholormethylketone (PPACK) as an anticoagulant.
Adenosine diphosphate (ADP)-induced platelet aggregation was evaluated by a LTA assay measuring platelet-induced aggregation as an increase in light transmittance (Michelson A D, Methods for the measurement of platelet function (2009) Am J Cardiol 103(3):20A-26A).
LTA assay: The two 3.5 mL blood samples were centrifuged to prepare platelet-rich plasma (PRP) and platelet-poor plasma (PPP). If needed, PRP was adjusted to a final platelet count of 260×10^9 platelets per liter by dilution with PPP from the same donor. The assay was performed with an 8-channel platelet aggregometer, recording the aggregation after addition of 20 μM ADP as agonist for 6 min. The results are expressed as percent change in light transmittance at maximum (peak) platelet aggregation (MPA), calculated relative to the baseline signal of 0%. The measurements were performed in duplicate.

[4] = Plasma pharmacokinetics after single subcutaneous doses, clinical phase I study; assay type: in vivo, human (healthy male subjects); settings: male, human, sc, N = 6, plasma; for half-life: read-out: t1/2, G.M. (converted); for Tmax: read-out: tmax, Median
Method: as §1, §2, §3, §4
The plasma PK parameters of Compound 1 were derived by non-compartmental analysis of the plasma concentration-time profiles. The following parameters were obtained:
maximum plasma concentration (Cmax); time to reach Cmax (tmax); area under the plasma concentration-time curve (AUC) from zero to time t of the last measured concentration above the limit of quantification (AUC0−t); and terminal elimination half-life (t1/2).
Blood was collected by direct venipuncture or via an i.v. catheter placed in an antecubital vein in the arm in a 4 mL Monovette® or equivalent tube containing ethylene diamine tetra-acetic acid. Immediately following collection of the required blood volume, the Monovettes® were slowly tilted backwards and forwards (no shaking) to bring the anticoagulant into solution, and immediately cooled on ice. Within 30 min of collection, the Monovettes® were centrifuged at approximately 1500 g for 10 min at 4° C. The plasma was transferred into one labeled polypropylene tube to avoid carry-over of erythrocytes. All samples were stored in an upright position below −70° C.
The analysis of Compound 1 in plasma was performed using a validated liquid chromatography coupled to tandem mass spectrometry assay. The lower limit of quantification (LLOQ) was 1 ng/mL. Concentrations were calculated by interpolation from a calibration curve. Quality control (QC) samples were analyzed throughout the study. Their measured concentrations were used to determine between-run and overall precision and accuracy of the analysis.

[5] = Solubility in aqueous media; assay type: physicochemical; settings: lyophilized disodium salt of Compound 1, reconstituted in water, pH=8.4

## CCCCOC(=O)N1CCN(C(=O)[C@H](CP(=O)(O)O)NC(=O)c2cc(N3CC[C@H](OC)C3)nc(-c3ccccc3)n2)CC1 [Compound 1, 4-((R)-2-{[6-((S)-3-methoxy-pyrrolidin-1-yl)-2-phenyl-pyrimidine-4-carbonyl]-amino}-3-phosphono-propionyl)-piperazine-1-carboxylic acid butyl ester]
[1]
  therapeutic window: significantly wider therapeutic window even than Ticagrelor
[2]
  bleeding events: No bleeding events were observed
[3]; 1 mg s.c., 0.25 h
  % IPA (inhibition of platelet aggregation) calculated using maximum platelet aggregation values, mean ± SD: 61.4 ± 15.1%
[3]; 1 mg s.c., 0.5 h
  % IPA (inhibition of platelet aggregation) calculated using maximum platelet aggregation values, mean ± SD: 64.4 ± 12.8%
[3]; 1 mg s.c., 3 h
  % IPA (inhibition of platelet aggregation) calculated using maximum platelet aggregation values, mean ± SD: 15.8 ± 20.0%
[3]; 1 mg s.c., 4 h
  % IPA (inhibition of platelet aggregation) calculated using maximum platelet aggregation values, mean ± SD: −10.0 ± 24.2%
[3]; 1 mg s.c., 5 h
  % IPA (inhibition of platelet aggregation) calculated using maximum platelet aggregation values, mean ± SD: −6.1 ± 26.0%
[3]; 1 mg s.c., 12 h
  % IPA (inhibition of platelet aggregation) calculated using maximum platelet aggregation values, mean ± SD: −4.5 ± 24.7%
[3]; 1 mg s.c., 48 h
  % IPA (inhibition of platelet aggregation) calculated using maximum platelet aggregation values, mean ± SD: −47.7 ± 29.9%
[3]; 2 mg s.c., 0.25 h
  % IPA (inhibition of platelet aggregation) calculated using maximum platelet aggregation values, mean ± SD: 60.3 ± 48.3%
[3]; 2 mg s.c., 0.5 h
  % IPA (inhibition of platelet aggregation) calculated using maximum platelet aggregation values, mean ± SD: 79.5 ± 10.8%
[3]; 2 mg s.c., 3 h
  % IPA (inhibition of platelet aggregation) calculated using maximum platelet aggregation values, mean ± SD: 36.8 ± 30.0%
[3]; 2 mg s.c., 4 h
  % IPA (inhibition of platelet aggregation) calculated using maximum platelet aggregation values, mean ± SD: 35.5 ± 18.9%
[3]; 2 mg s.c., 5 h
  % IPA (inhibition of platelet aggregation) calculated using maximum platelet aggregation values, mean ± SD: 14.1 ± 28.4%
[3]; 2 mg s.c., 12 h
  % IPA (inhibition of platelet aggregation) calculated using maximum platelet aggregation values, mean ± SD: 31.3 ± 28.9%
[3]; 2 mg s.c., 48 h
  % IPA (inhibition of platelet aggregation) calculated using maximum platelet aggregation values, mean ± SD: 11.3 ± 38.5%
[3]; 4 mg s.c., 0.25 h
  % IPA (inhibition of platelet aggregation) calculated using maximum platelet aggregation values, mean ± SD: 79.7 ± 6.0%
[3]; 4 mg s.c., 0.5 h
  % IPA (inhibition of platelet aggregation) calculated using maximum platelet aggregation values, mean ± SD: 84.7 ± 5.4%
[3]; 4 mg s.c., 3 h
  % IPA (inhibition of platelet aggregation) calculated using maximum platelet aggregation values, mean ± SD: 58.5 ± 7.2%
[3]; 4 mg s.c., 4 h
  % IPA (inhibition of platelet aggregation) calculated using maximum platelet aggregation values, mean ± SD: 50.6 ± 22.1%
[3]; 4 mg s.c., 5 h
  % IPA (inhibition of platelet aggregation) calculated using maximum platelet aggregation values, mean ± SD: 47.9 ± 17.9%
[3]; 4 mg s.c., 12 h
  % IPA (inhibition of platelet aggregation) calculated using maximum platelet aggregation values, mean ± SD: 37.4 ± 16.7%
[3]; 4 mg s.c., 48 h
  % IPA (inhibition of platelet aggregation) calculated using maximum platelet aggregation values, mean ± SD: 2.1 ± 16.3%
[3]; 8 mg s.c., 0.25 h
  % IPA (inhibition of platelet aggregation) calculated using maximum platelet aggregation values, mean ± SD: 88.9 ± 8.4%
[3]; 8 mg s.c., 0.5 h
  % IPA (inhibition of platelet aggregation) calculated using maximum platelet aggregation values, mean ± SD: 90.0 ± 8.5%
[3]; 8 mg s.c., 3 h
  % IPA (inhibition of platelet aggregation) calculated using maximum platelet aggregation values, mean ± SD: 77.9 ± 19.5%
[3]; 8 mg s.c., 4 h
  % IPA (inhibition of platelet aggregation) calculated using maximum platelet aggregation values, mean ± SD: 70.9 ± 12.5%
[3]; 8 mg s.c., 5 h
  % IPA (inhibition of platelet aggregation) calculated using maximum platelet aggregation values, mean ± SD: 75.2 ± 11.5%
[3]; 8 mg s.c., 12 h
  % IPA (inhibition of platelet aggregation) calculated using maximum platelet aggregation values, mean ± SD: 64.0 ± 10.4%
[3]; 8 mg s.c., 48 h
  % IPA (inhibition of platelet aggregation) calculated using maximum platelet aggregation values, mean ± SD: −1.3 ± 33.7%
[3]; 16 mg s.c.
  duration for which mean % IPA≥85% was sustained post administration: approximately 5 h
[3]; 16 mg s.c., 0.25 h
  % IPA (inhibition of platelet aggregation) calculated using maximum platelet aggregation values, mean ± SD: 92.8 ± 5.5%
[3]; 16 mg s.c., 0.5 h
  % IPA (inhibition of platelet aggregation) calculated using maximum platelet aggregation values, mean ± SD: 93.1 ± 3.6%
[3]; 16 mg s.c., 3 h
  % IPA (inhibition of platelet aggregation) calculated using maximum platelet aggregation values, mean ± SD: 95.0 ± 1.2%
[3]; 16 mg s.c., 4 h
  % IPA (inhibition of platelet aggregation) calculated using maximum platelet aggregation values, mean ± SD: 88.2 ± 4.7%
[3]; 16 mg s.c., 5 h
  % IPA (inhibition of platelet aggregation) calculated using maximum platelet aggregation values, mean ± SD: 87.6 ± 5.5%
[3]; 16 mg s.c., 12 h
  % IPA (inhibition of platelet aggregation) calculated using maximum platelet aggregation values, mean ± SD: 76.0 ± 13.8%
[3]; 16 mg s.c., 48 h
  % IPA (inhibition of platelet aggregation) calculated using maximum platelet aggregation values, mean ± SD: −1.6 ± 43.8%
[3]; 32 mg s.c.
  duration for which mean % IPA≥85% was sustained post administration: ~12 h
[3]; 32 mg s.c., 0.25 h
  % IPA (inhibition of platelet aggregation) calculated using maximum platelet aggregation values, mean ± SD: 95.5 ± 2.7%
[3]; 32 mg s.c., 0.5 h
  % IPA (inhibition of platelet aggregation) calculated using maximum platelet aggregation values, mean ± SD: 94.5 ± 2.0%
[3]; 32 mg s.c., 3 h
  % IPA (inhibition of platelet aggregation) calculated using maximum platelet aggregation values, mean ± SD: 94.5 ± 2.0%
[3]; 32 mg s.c., 4 h
  % IPA (inhibition of platelet aggregation) calculated using maximum platelet aggregation values, mean ± SD: 91.2 ± 1.9%
[3]; 32 mg s.c., 5 h
  % IPA (inhibition of platelet aggregation) calculated using maximum platelet aggregation values, mean ± SD: 92.1 ± 2.6%
[3]; 32 mg s.c., 12 h
  % IPA (inhibition of platelet aggregation) calculated using maximum platelet aggregation values, mean ± SD: 83.5 ± 12.9%
[3]; 32 mg s.c., 48 h
  % IPA (inhibition of platelet aggregation) calculated using maximum platelet aggregation values, mean ± SD: 29.8 ± 20.9%
[3]; at each dose level (1 to 32 mg s.c.)
  time post dosing at which peak % IPA was achieved: 15 to 30 min
[3]; doses ≥4 mg s.c.
  peak % IPA: exceeded 85%
[3]; doses ≥8 mg s.c.
  peak % IPA: exceeded 85%
  time in which peak % IPA exceeded 85%: less than 15 min
[4]; 1 mg s.c. single dose
  AUC(0-t): 56.1 ng·h/mL
  Cmax: 33.7 ng/mL
  half-life: 1.34 h
  Tmax: 0.5 h
[4]; 2 mg s.c. single dose
  AUC(0-t): 116 ng·h/mL
  Cmax: 58.4 ng/mL
  half-life: 1.92 h
  Tmax: 0.5 h
[4]; 4 mg s.c. single dose
  AUC(0-t): 261 ng·h/mL
  Cmax: 128 ng/mL
  half-life: 2.66 h
  Tmax: 0.5 h
[4]; 8 mg s.c. single dose
  AUC(0-t): 585 ng·h/mL
  Cmax: 273 ng/mL
  half-life: 3.98 h
  Tmax: 0.5 h
[4]; 16 mg s.c. single dose
  AUC(0-t): 1120 ng·h/mL
  Cmax: 435 ng/mL
  half-life: 7.2 h
  Tmax: 0.75 h
[4]; 32 mg s.c. single dose
  AUC(0-t): 2340 ng·h/mL
  Cmax: 930 ng/mL
  half-life: 9.2 h
  Tmax: 0.75 h
[5]
  solubility: 75 mg/mL

— patent US11179390B2, “Subcutaneous administration of a P2Y12 receptor antagonist” (Idorsia Pharmaceuticals Ltd, priority 2017, dated 2021)
